# Measured values as given in US20040259823A1, “Cationic amphiphiles as transfection vehicles” (priority 2001, published 2004).
# Assays:
# Format in all cases: cell-based
# COS-7 and HepG2 cells [1] = assay: Transfection with pCMV GFP plasmid, % GFP positive cells by FACS (cell line not given); settings: cell line and helper lipid not given
# Method: (§1) Transfections were carried out following standard protocols as is described in EP 0755924. In numerous publications variations of transfection protocols are given. A person acquainted with the field of non-viral transfections, in particular transfections using cationic amphiphiles will be able to use the cationic amphiphiles of the invention in transfection methods known per se. In standard experiments COS-7 cells are transfected with plasmid DNA containing the β-galactosidase reporter gene. Upon successful transfection the cell produces the enzyme β-galactosidase whose activity can be easily measured. Other plasmids comprising alternative reporter genes such as the gene encoding Green Fluorescent Protein or Chloroamphenicol Acetyl Transferase are suited as well. For analyzing stable transfection a plasmid containing the neomycin resistance gene can be used. Toxicity of the cationic amphiphiles towards the cells can be monitored qualitatively and quantitatively by visual inspection of the cells and by a protein determination.
# (§2) A solution of cationic amphiphile in a 50/50 molar ratio with DOPE, DOPC or cholesterol in chloroform was dried under a stream of nitrogen. The residual solvent was removed under vacuum. The lipid film was hydrated in water at room temperature and sonicated to clarity in a bath sonicator immediately before use.
# (§3) A 4.7 kb pair plasmid containing the GFP reporter gene under control of the cytomegalovirus immediate early gene promoter/enhancer (pCMV GFP).DNA was isolated from E. coli using a Qiagen Plasmid Kit (QIAGEN Inc, USA). The plasmid concentration was determined by measuring the absoption at 260 nm using the relation 1.0 OD=50 μg/ml. The OD260/OD280 value was 1.95.
# (§4) COS-7 and HepG2 cells were cultured in Dulbecco's Modified Eagle Medium (DMEM Gibco The Netherlands) containing 7% of fetal calf serum, 2 mM L-Glutamine, 100 units/ml of penicilin and […] of streptomycin at 37° C. in CO2/air (1:19).
# (§5) Cells (1×10^5 cells/well) were seeded in 12-well plates and were allowed to grow overnight.
# (§6) The complex of cationic amphiphile/helper lipid (1:1) with pCMV GFP was prepared at the charge ratio 2.5:1 (15 nmol lipid and 1 μg DNA), in 100 μl 10 mM HEPES (pH=7.4, 150 mM NaCl). After 10-15 min incubation at room temperature, the resulting complex was diluted in 1 ml medium (DMEM) and 0.5 ml of the mixture was added to the cells and incubated for 4 h at 37° C. The transfection efficiency expressed as a percentage of GFP positive cells was measured by FACS (Fluorescence Activated Cell Soorting) 48 hours after the transfection.
# (§7) Control wells underwent identical steps except that no cationic amphiphile was added.
# COS-7 and HepG2 cells [2] = assay: Cell survival after transfection (cell line not given); settings: cell line and helper lipid not given; for % surv / % surv mean: Table 11
# Method: as §1, §4, §5, §6, §7
# COS-7 and HepG2 cells [3] = assay: Toxicity towards the cells by protein determination versus control wells; settings: protein determination compared with the reference value of control wells
# Method: as §1, with “determination. Control wells underwent identical steps except that no cationic amphiphile was added.” for “determination.”
# HepG2 [4] = assay: Transfection with pCMV GFP plasmid, % GFP positive cells by FACS (Table 3); settings: HepG2, DOPE
# Method: as §1, §2, §3, §4, §5, §6, §7
# HepG2 [5] = assay: Cell survival after transfection (Table 3); settings: HepG2, DOPE; further: tested at 6.8 µM
# Method: as §1, §4, §5, §6, §7
# Wherever % surv mean is given: tested at 6.8 µM.
Structure (SMILES),% TE (HepG2 [4]; first value) [%],% TE mean (HepG2 [4]) [%],% TE (HepG2 [4]; second value) [%],% surv cells (HepG2 [5]; first value) [%],% surv cells Mean (HepG2 [5]) [%],% surv cells (HepG2 [5]; second value) [%],% TE (COS-7 and HepG2 cells [1]; Table 4) [%],% TE (COS-7 and HepG2 cells [1]; Table 5) [%],% TE (COS-7 and HepG2 cells [1]; Table 6) [%],"% TE (COS-7 and HepG2 cells [1]; Table 11, first value) [%]",% TE mean (COS-7 and HepG2 cells [1]; Table 11) [%],"% TE (COS-7 and HepG2 cells [1]; Table 11, second value) [%]",% surv cells (COS-7 and HepG2 cells [2]; Table 4) [%],% surv cells (COS-7 and HepG2 cells [2]; Table 5) [%],% surv cells (COS-7 and HepG2 cells [2]; Table 6) [%],% surv (COS-7 and HepG2 cells [2]; first value) [%],% surv mean (COS-7 and HepG2 cells [2]) [%],% surv (COS-7 and HepG2 cells [2]; second value) [%],also measured
"CCCCCCCC/C=C\CCCCCCCCCc1cc[n+](CCCCCCCC/C=C\CCCCCCCC)cc1.[Cl-] [SF6, 1-(9′-cis-octadecenyl)-4-(10″-cis-nonadecenyl) pyridinium Chloride]",,,,,,,,,,,,,,,,,,,% TE (COS-7 and HepG2 cells [1]; Table 1): 14.44%; % TE (COS-7 and HepG2 cells [1]; Table 2): 11.48%; % TE (COS-7 and HepG2 cells [1]; Table 7): 30.91%; % TE (COS-7 and HepG2 cells [1]; Table 8): 9.96%; % TE (COS-7 and HepG2 cells [1]; Table 9): 3.92%; % TE (COS-7 and HepG2 cells [1]; Table 10): 9.14%; % surv cells (COS-7 and HepG2 cells [2]; Table 1): 75.3%; % surv cells (COS-7 and HepG2 cells [2]; Table 2): 47.3%; % surv cells (COS-7 and HepG2 cells [2]; Table 7): 84.06%; % surv cells (COS-7 and HepG2 cells [2]; Table 8): 57.21%; % surv cells (COS-7 and HepG2 cells [2]; Table 9): 70.01%; % surv cells (COS-7 and HepG2 cells [2]; Table 10): 61.57%; toxicity towards the cells (COS-7 and HepG2 cells [3]): marginal toxicity
"CCCCCCCC/C=C\CCCCCCCC[n+]1ccc(CCCCCCCCCCC)cc1 [SF43, 1-(9′-cis-octadecenyl)-4-undecyl-pyridinium Chloride]",5.71,5.805,5.9,52.11,53.845,55.58,9.18,0.55,10.22,24.6,24.2,23.8,68.12,85.51,86.86,85.42,84.395,83.37,
"CCCCCCCC/C=C\CCCCCCCC[n+]1ccc(CCCCCCCCCCCCCCC)cc1.[Cl-] [SF44, 1-(9′-cis-octadecenyl)-4-pentadecyl-pyridinium Chloride]",12.53,11.185,9.84,45.21,49.18,53.15,10.13,1.64,8.89,9.1,8.67,8.24,66.51,92.1,93.99,90.36,88.91,87.46,
"CCCCCCCC/C=C\CCCCCCCC[n+]1ccc(CCCCCCCCCCCCCCCCC)cc1.[Cl-] [SF45, 1-(9′-cis-octadecenyl)-4-(heptadecyl) pyridinium Chloride]",8.93,6.465,4,40.24,31.565,22.89,9.71,3.38,5.35,0.27,0.15,0.03,67.4,93.02,92.61,90.01,87.55,85.09,
"CCCCCCCC/C=C\CCCCCCCCCc1cc[n+](CCCCCCCCCCCCCCCCCC)cc1.[Cl-] [SF46, 1-stearyl-4-(10′-cis-nonadecenyl)-pyridinium Chloride]",11.65,9.07,6.49,16.79,15.445,14.1,9.17,2.71,1.11,10.6,10.6,,72.57,76.34,93.55,87.02,87.02,,
"CCCCCCCCCCCCOC(=O)c1cc[n+](CCCCCCCCCCCC)cc1.[Cl-] [SF53, 1-dodecyl-4-(-carbo-(dodecyloxy)) pyridinium Chloride]",2.13,2.13,,37.51,37.51,,9.04,0.71,0.56,6.67,6.67,,65.91,91.6,91.74,84.51,84.51,,
